Results as given in article PMC11374660, “The novel family of Warbicin® compounds inhibits glucose uptake both in yeast and human cells and restrains cancer cell proliferation” (Frontiers in Oncology, 2024).

Key:
[1] = system: hxk2Δ hxk1Δ GLK1 yeast cells; test: Sugar uptake in hxk2Δ hxk1Δ GLK1 yeast cells; type: cell-based, S. cerevisiae; conditions: 250 µM CCCP or 50 µM WBC-A 10 min prior; 100 mM maltose with the tracer
Method: (§1) Zero-trans uptake of radioactively labeled [U-^14C]glucose, [U-^14C]fructose or [U-^14C]galactose by S. cerevisiae cells was determined in accordance with previous studies ([45], [75]). Cells were grown on different carbon sources depending on the experiment. For measuring glucose uptake activity in the tps1Δ and tps1Δ hxtΔ strains, cells were grown on YP medium containing 325 mM glycerol (measurement of 10 s). Typically, for compound characterization and kinetic studies in wild type and tps1Δ strains, cells were (pre)grown on Complete Synthetic medium supplemented with 110 mM galactose (measurement of 10 s). In the experiments on the influence of hexokinase activity on the sugar uptake rate, the measurement duration was shortened to 5 s and cells were always grown on YP medium containing 325 mM glycerol and 430 mM ethanol. After harvesting, cells were washed twice with ice-cold 25 mM MES-buffer pH 6, and resuspended in their respective medium without sugar to a final concentration of 45 mg (wet weight)/mL. The amount of added tracer was estimated to give a response close to at least 1000 counts per min in order to adequately counter background noise. Cells were first preincubated for 10 min at 30°C with the compound to acclimate the cells to the temperature and to allow adequate interaction with the compound prior to uptake. Next, hexose sugar was mixed with the cell suspension, which was then incubated at 30°C for 5 or 10 s, depending on the experiment, after which the cells were rapidly filtered over a glass microfiber filter (Whatman GF/C) and washed three times with ice-cold dH2O. The loaded filter was transferred to a scintillation vial containing 3 mL liquid scintillation cocktail (Ultima-Flo M, Perkin Elmer) and counted using the Hidex 300 SL. Three blank measurements per strain were typically included to account for background signal, for which the cells were first quenched before adding the radioactive label.

[2] = system: A549 lung adenocarcinoma cells; test: Proliferation of A549 lung adenocarcinoma cells; type: cell-based, human; conditions: for Selected from primary screen for growth inhibition of A549 cells at 50 µM: RPMI 1 mM glucose; for Selected for having an IC50 ratio (10 mM glucose : 1 mM glucose) of A549 growth higher than WBC-A: ratio of IC50 on 10 mM and 1 mM glucose, compared to WBC-A; for relative potency in reducing maximal growth rate of A549 cells: 1 mM glucose, 6.25-50 µM
Method: (§2) For both adherent A549 and MCF10A H-RAS^V12 cell lines, growth curves were established using the IncuCyte® ZOOM technology. By collecting phase contrast images, the IncuCyte® software provides a calculated confluency percentage from which growth curves can be deducted. The cell number/density was measured by calculating the confluency of phase objects (cells) sticking on the bottom of the well. Cells were seeded at a density of 1000 - 1500 cells/well in a Nunc-Edge™ 96-well plate (Thermo Fisher Scientific) and growth was typically measured over 3 to 5 days. For the measurement of apoptosis induction using the MCF10A H-RAS^V12 cell line, the IncuCyte® Caspase-3/7 green dye was added to the medium in the recommended concentration at the beginning of the growth curve experiment. Apoptosis was detected by taking fluorescent images by excitation at 488 nm followed by IncuCyte® software analysis. Cell growth of the KMS-12-PE multiple myeloma cell line, which grows in suspension, was measured by manual cell counting. Cells were initially seeded at a density of 10^4 cells/well and incubated for 4 days after which the cell number was counted. For all cell lines, the same medium used for pregrowth was also used for the growth curve experiment, albeit with different glucose concentrations depending on the experimental design. With compound administration, the final concentration of DMSO never exceeded 0.1%. Typically, at least four technical repeats were included per condition.

[3] = system: glucose uptake by wild type yeast cells; test: Zero-trans uptake of radioactive glucose in wild type yeast cells; type: cell-based, S. cerevisiae
Method: as §1

[4] = system: yeast tps1Δ strain; test: Growth (rescue) of the yeast tps1Δ strain on galactose with or without glucose; type: cell-based, S. cerevisiae; conditions: 2.5 mM glucose
Method: Growth curves were made by measuring OD595 in a 96-well plate using the Multiskan™ FC Microplate Photometer (Thermo Fisher Scientific). Typically, for tps1Δ rescue experiments, cells were (pre)grown in Complete Synthetic medium containing 110 mM galactose. Compounds were always added 10 min prior to glucose addition to ensure maximal interaction between the cells and compounds. Cells originating from the preculture were harvested, washed in medium without sugar, after which they were resuspended to an OD of 0.1 in 200 µL of the appropriate medium. At least three technical replicates were included per condition. OD595 was measured at 30°C every 30 min with a 10-min shaking interval.

[5] = system: glucose uptake by tps1Δ yeast cells; test: Zero-trans uptake of radioactive glucose in tps1Δ yeast cells; type: cell-based, S. cerevisiae; conditions: tps1∆ cells, 2.5 mM glucose; read-out: IC50 values for 2.5 mM glucose uptake in tps1∆ cells
Method: as §1

[6] = Solubility of compound stocks; type: physicochemical; conditions: 100% DMSO
Method: WBC-A and the complete structural analog library ( Supplementary Table 2 ) were purchased from different vendors, i.e. Enamine (n = 185), Life Chemicals (n = 10), LabNetwork (n = 4) and Uorsy (n = 4). WBC compounds in general are very insoluble in aqueous solutions, challenging their solubilization. Throughout this work, WBC compounds were always stock aliquoted at 50 mM concentration in 100% DMSO. In many cases, gentle sonication and heating up to 37°C was necessary to completely solubilize the compound stocks. Whereas WBC-A, -15C, -4C and -11C could be dissolved at 50 mM, some structural analogs remained in smooth or rough suspension, regardless of the concentration. Even though it is recommended to aliquot compound stocks, no significant decrease in compound strength by repeated freeze and thaw cycles in DMSO was observed.

[7] = system: A549 lung adenocarcinoma cells; test: Glucose consumption and lactate production over 8 h, A549; type: cell-based, human; conditions: A549, 25 µM, 1 mM glucose
Method: The influence of WBC compounds on glucose consumption over a longer time period was studied in the A549 adenocarcinoma and KMS-12-PE multiple myeloma cell lines. As such, different parameters needed to be optimized depending on whether cells were adherent or in suspension. As such, A549 cells were incubated at 125,000 cells/well in a 24-well plate in 300 µL RPMI medium for 8 h. For the KMS-12-PE cell line, 100,000 cells/well were incubated in 100 µL RPMI medium in a 96-well plate for 8 h. Medium was collected, spun down and HPLC-analyzed for measuring glucose and lactate levels. Metabolite levels were corrected for cell number, which always varied little over the span of 8 h. For every condition, at least 4 technical repeats were included.

[8] = system: MCF10A breast epithelial cell line transformed with H-RAS^V12; test: Growth and apoptosis of MCF10A H-RAS^V12 cells (IncuCyte); type: cell-based, human; conditions: MCF10A H-RAS^V12, 1 mM glucose, 25 µM
Method: as §2

[9] = system: 2-deoxyglucose uptake in A549 lung adenocarcinoma cells; test: 2-deoxyglucose uptake in A549 lung adenocarcinoma cells; type: cell-based, human; conditions: for Ki: read-out: Ki for 2-deoxyglucose uptake (Dixon plot)
Method: Zero-trans glucose uptake in A549 cells was approximated by measuring the uptake of [1,2-^3H]2-deoxyglucose. For this purpose, A549 cells were pregrown in RPMI medium containing 10 mM glucose in a 24-well plate to a cell density of around 100,000 cells/well. Prior to adding radioactive label, cells were gently washed twice in Krebs-Ringer-HEPES buffer (50 mM HEPES pH 7.4, 137 mM NaCl, 4.7 mM KCl, […], 1.3 mM MgSO4 and 0.1% w/v BSA) at 30°C to remove any residual sugar. RPMI medium without sugar containing the compound intended for treatment, was added to the cells for 15 min at 37°C to allow adequate interaction of the cells with the compound. The uptake measurement was initiated by adding an equal volume of medium containing radiolabeled 2DG. After 3 - 4 min incubation at 37°C, medium was aspirated and cells were gently washed three times with ice-cold Krebs-Ringer-HEPES buffer. Cells were lysed by adding 200 µL of ice-cold 0.1 M NaOH solution and incubating the plate for 10 min at 37°C. Cell lysates were transferred to scintillation vials for subsequent scintillation counting. For blank measurements, cells were incubated with 50 µM Cytochalasin B prior to the uptake measurement.

[10] = system: female NMRI-nu mice; test: In vivo toxicity and tolerability in mice; conditions: for abnormalities / toxic effects in liver and other organs at autopsy: daily i.p., toxic effects at 20 mg/kg WBC-15C and at 20 and 10 mg/kg WBC-11C, not at lower doses; for loss in body weight: daily intraperitoneal injection, 5, 10 and 20 mg/kg; for AST/ALT ratio vs vehicle: sera after 20 days, 5, 10, 20 mg/kg daily i.p.; for blood glucose level vs vehicle: sera post-mortem after 20 days, 5, 10, 20 mg/kg daily i.p.
Method: Warbicin ® in vivo toxicity and tolerability was examined by subjecting female NMRI-nu mice (12 weeks old) to daily intraperitoneal injection of either WBC-A, WBC-15C, WBC-4C or WBC-11C. Compounds were dosed at either 5 mg/kg, 10 mg/kg or 20 mg/kg over a period of 20 days. Three mice were used per condition. To evaluate toxicity, change in body weight was registered daily. As a humane endpoint, mice that lost more than 20% of their original body weight were prematurely sacrificed. In addition, liver function was examined by measuring the ratio of the AST to ALT enzyme activities (AbCam ab105135, ab105134) in sera samples collected at the end of the experiment. Furthermore, the blood glucose level in mice sera was determined using the colorimetric GOD-PAP method. Due to their considerable hydrophobicity, the compounds were dissolved in a sterilized 1xPBS, 5% DMSO and 5% Tween-80 solution until a homogenous suspension was obtained that could be administered in a reproducible way.

[11] = system: A549 lung adenocarcinoma cells; parameters: method as in PMID 22689530; conditions: previously reported; ref [67]; cited from earlier work

| Compound | Selected from primary screen for growth inhibition of A549 cells at 50 µM [2] | Selected for having an IC50 ratio (10 mM glucose : 1 mM glucose) of A549 growth higher than WBC-A [2] | Rescue of the tps1∆ strain on 2.5 mM glucose at 100 µM [4] | concentration at which compound could be dissolved [6] [µM] | relative potency in reducing maximal growth rate of A549 cells [2] | inhibition of glucose consumption and lactate production [7] | type of inhibition of 2-deoxyglucose uptake (Lineweaver-Burk) [9] | Ki [9] [nM] | abnormalities / toxic effects in liver and other organs at autopsy ([10]; 20 days) | loss in body weight ([10]; nude mice, 20 days) | AST/ALT ratio vs vehicle [10] | blood glucose level vs vehicle [10] | also measured |
| --- | --- | --- | --- | --- | --- | --- | --- | --- | --- | --- | --- | --- | --- |
| N#CC(C#N)=NNc1cccc(Cl)c1 [CCCP, reference compound] |  |  |  |  |  |  |  |  |  |  |  |  | fructose uptake at tracer concentration [1]: not that of fructose; glucose uptake at tracer concentration [1]: lowered the glucose uptake rate |
| CCN(C(=O)CSc1nc(C)nc2scc(-c3cccs3)c12)C1CCS(=O)(=O)C1 (centres unmarked) [WBC-2C] | Yes | Lower IC50 ratio | Yes |  |  |  |  |  |  |  |  |  | type of inhibition of glucose uptake (Lineweaver-Burk) [3]: mixed type of inhibition; IC50 ([3]; radioactive glucose, 10 s, read-out: IC50 for inhibition of 2.5 mM glucose uptake): 1980 nM; Ki ([3]; read-out: Ki (Dixon plot) for glucose uptake): 1450 nM; Minimal rescue concentration for growth of tps1∆ cells on 2.5 mM glucose [4]: 1.562 µM; IC50 [5]: 2000 nM |
| Cc1nc(NCC(=O)NCc2ccco2)c2c(-c3ccccc3)csc2n1 [WBC-4C] | Yes | Higher IC50 ratio and confirmed | No | ≥ 50000 | intermediate potency | inhibited glucose consumption and lactate production | noncompetitive | 26800 | No other abnormalities | one single mouse treated with 20 mg/kg WBC-4C that was sacrificed at day 19 because of 20% weight loss | No significant difference | No significant difference | inhibition of proliferation [8]: highest potency; K'i for 2-deoxyglucose uptake ([9]; Dixon plot (Ki = K'i) or Cornish-Bowden plot (WBC-11C)): 26.75 µM |
| Cc1nc(NCC(=O)Nc2ccccc2Br)c2c(-c3cccs3)csc2n1 [WBC-15C] | Yes | Higher IC50 ratio and confirmed | No | ≥ 50000 | least potent | inhibited glucose consumption and lactate production | competitive | 33800 | toxic effects were seen in the liver and other organs | no significant loss in body weight | No significant difference | No significant difference | adipose tissue at autopsy ([10]; nude mice, daily i.p., 5, 10 and 20 mg/kg, 20 days, visual inspection vs vehicle): adipose tissue was also observed in between the intestines |
| O=C(Oc1cccc(F)c1OC(=O)c1cccc(O)c1)c1cccc(O)c1 [WZB-117] |  |  |  |  |  |  |  |  |  |  |  |  | inhibition of A549 proliferation [11]: inhibition of its proliferation |
